Patent US9568449B2, “Dielectric spectroscopy methods and apparatus” (Bend Research, Inc., priority 2012, dated 2017)

Experiments:
[1] = system: first population of cells; assay: Dielectric spectroscopy (normalized capacitance versus frequency) of an apoptosis-induced cell population; assay type: cell-based; conditions: from time of staurosporine addition (day 14) to 60 hours after addition; compared with slight drift in control; FIG. 19D
Text: At process block 1810, data representing a number of measurements of an electrical property of a first population of cells are received. The measurements can be obtained by applying a frequency-varying signal (e.g., a sine wave having a frequency that is varied across a selected frequency range, or at two or more selected frequencies) to the population of cells while measuring an electrical property such as permittivity or capacitance. A number of selected frequencies can be used, for example, frequencies between 50 kHz and 10 MHz. The measured permittivity of the population of cells will vary depending on the frequency of the applied signal used to measure permittivity. For example, the permittivity can range from a high measurement of 4×10^−9 Farads per meter (F/m) at a low frequency of 50 kHz to a low measurement of 1×10^−11 F/m at a high frequency of 10 MHz. […] The cells can be mammalian cells (e.g. from the CHO or NS0 cell lines) suspended in a nutrient solution.
At process block 1830, the first set of measurements for the first population of cells and the second set of measurements for the second population of cells are compared.
The chart 1950 of FIG. 19D illustrates the first set of measurements obtained from the first population of cells that has an apoptosis-inducing agent added at day 14 of cell growth.

[2] = system: first population of cells; assay: Viability of a cell population after apoptosis induction with staurosporine; assay type: cell-based; conditions: 1 μM staurosporine added at day 14 of cell growth; compared with untreated control population; FIG. 19B
Experimental: FIG. 19A is a chart 1900 that illustrates the viability of cells (along the y-axis) in two different cell populations over a period of time (along the x-axis) in an example experiment corresponding to the method of FIG. 18. As shown, a first line 1910 indicates the viability of a first population of cells, which has apoptosis induced using addition of a staurosporine agent. In this case, a 1 μM concentration of staurosporine was used. A second line 1915 indicates the viability of a second population of cells, which is a control population that is not induced using a staurosporine agent.
At a designated time period, apoptosis is induced in the first population of cells by adding an apoptosis inducing agent to the environment.
FIG. 19B is a chart 1930 that illustrates viable cell density (VCD) (left y-axis) and cell viability percentage (right y-axis) plotted over time (x-axis) for the first and second measurements of the first and second populations of cells received at process block 1810 and 1820.

SMILES: CN[C@@H]1C[C@H]2O[C@@](C)([C@@H]1OC)n1c3ccccc3c3c4c(c5c6ccccc6n2c5c31)C(=O)NC4 [staurosporine]
- shift of normalized capacitance versus frequency curve [1]: more substantial drift to the right
- cell viability percentage [2]: declining
- viable cell density (VCD) [2]: declining
